# Reference: patent US12715894B2, “Triptolide conjugates and uses thereof” (priority 2020, dated 2026)
# Legend:
# huh-7 cells = assay: Huh-7 HCC animal model, antitumor efficacy against solid tumors; format: in vivo, male nude mice; settings: Huh-7 xenograft; for Tumor volume (V) 4 days after treatment: Compound 1 and 2 at 2.0 mg/kg i.p. once daily, Lenvatinib 5.0 mg/kg oral once daily, control V=598 mm^3; for Tumor inhibition rate based on the average tumor weights: after 21 days treatment, Compound 1 and 2 at 2.0 mg/kg i.p. daily, Lenvatinib 5.0 mg/kg oral daily; for Increase of average tumor volume by the end of the treatment compared to before the treatment: end of 3 weeks daily treatment, given as 'increased up to', control up to 15 times
# Procedure: To evaluate the antitumor efficacy of the triptolide conjugates disclosed herein against solid tumors, huh-7 cells (~10×10^6 cells) were injected into the right flank of male nude mice. When the tumors reached a volume of ~150 mm^3, the mice were randomly divided into 4 groups with 7 or 8 mice per group and were treated as below indicated. Tumor volumes were measured twice per week and estimated by using the formula: Tumor volume (V)=(L×W×W)÷2, W is tumor width, L is tumor length. • 1. Group 1 was the control group in which the mice were administered daily the vehicle (0.5% CMC-Na/carboxymethylcellulose sodium, i.p.) for 3 weeks; • 2. Group 2 was the test group in which the mice were administered daily Compound 1 (2.0 mg/kg, i.p.) for 3 weeks; • 3. Group 3 was the test group in which the mice were administered daily Compound 2 (2.0 mg/kg, i.p.) for 3 weeks; and • 4. Group 4 was the positive control group in which the mice where administered daily Lenvatinib (5.0 mg/kg, oral) for 3 weeks.
# HepG-2 cells = assay: HepG-2 HCC animal model, antitumor efficacy against solid tumors; format: in vivo, male nude mice; settings: HepG-2 xenograft; Conjugate 4 at 2.0 mg/kg, Conjugates 8, 9, 10 at 6.0 mg/kg, i.p. daily for 4 weeks; vehicle group increased to 17.72 times
# Procedure: To evaluate the antitumor efficacy of the novel triptolide-conjugate against solid tumors, HepG-2 cells (~10×10^6 cells) were injected into the right flank of male nude mice. when the tumors were reached a volume of ~150 mm^3, mice were randomly divided into 5 groups with 8 mice per group and treated as below indicated. Tumor volumes were measured twice per week and estimated by using the formula: Tumor volume (V)=(L×W×W) 2, W is tumor width, L is tumor length. • 1. Group 1 is the control in which the mice were daily administered vehicle (i.p. brine) for 4 weeks; • 2. in Group 2, mice were daily administered Conjugate 4 (2.0 mg/kg, i.p.) for 4 weeks; • 3. in Group 3, mice were daily administered Conjugate 8 (6.0 mg/kg, i.p.) for 4 weeks; • 4. in Group 4, mice were daily administered Conjugate 9 (6.0 mg/kg i.p.) for 4 weeks; • 5. in Group 5, mice were daily administered Conjugate 10 (6.0 mg/kg, i.p.) for 4 weeks;
Structure (SMILES),Tumor volume (V) 4 days after treatment (huh-7 cells),Tumor inhibition rate based on the average tumor weights (huh-7 cells),Increase of average tumor volume by the end of the treatment compared to before the treatment (huh-7 cells),Tumor size after 28 days treatment (HepG-2 cells)
"CC(C)[C@]12O[C@H]1[C@@H]1O[C@]13[C@]1(O[C@H]1C[C@H]1C4=C(CC[C@@]13C)C(=O)OC4)[C@@H]2OC(=O)CCC(=O)OC[C@H]1OC(O)[C@H](F)[C@@H](O)[C@@H]1O (stereo partly drawn) [Compound 1, ((2R,3S,4S,5R)-5-fluoro-3,4,6-trihydroxytetrahydro-2H-pyran-2-yl)methyl ((5bS,6aS,7aR,8R,8aS,9aS,9bS,10aS,10bS)-8a-isopropyl-10b-methyl-3-oxo-1,2,3,5,5b,6,6a,8,8a,9a,9b,10b-dodecahydrotris(oxireno)[2′,3′:4b,5;2″,3″:6,7;2′″,3′″:8a,9]phenanthro[1,2-c]furan-8-yl) succinate]",245 mm^3,88.3%,up to 2.0 times,–
"CC(C)[C@]12O[C@H]1[C@@H]1O[C@]13[C@]1(O[C@H]1C[C@H]1C4=C(CC[C@@]13C)C(=O)OC4)[C@@H]2OC(=O)CCC(=O)N1CCN(C(=O)CCC(=O)N[C@@H]2C(O)O[C@@H](CO)[C@H](O)[C@H]2O)CC1 (stereo partly drawn) [Compound 2, (5bS,6aS,7aR,8R,8aS,9aS,9bS,10aS,10bS)-8a-isopropyl-10b-methyl-3-oxo-1,2,3,5,5b,6,6a,8,8a,9a,9b,10b-dodecahydrotris(oxireno)[2′,3′:4b,5;2″,3″:6,7;2′″,3′″:8a,9]phenanthro[1,2-c]furan-8-yl 4-oxo-4-(4-(4-oxo-4-(((3S,4S,5R,6S)-2,4,5-trihydroxy-6-(hydroxymethyl)tetrahydro-2H-pyran-3-yl)amino)butanoyl)piperazin-1-yl)butanoate]",315 mm^3,84.4%,≤ 2.7 times,–
CC(C)[C@]12O[C@H]1[C@@H]1O[C@]13[C@]1(O[C@H]1C[C@H]1C4=C(CC[C@@]13C)C(=O)OC4)[C@@H]2OC(=O)CNC(=O)CNC(=O)COC[C@H]1OC(O)[C@H](O)[C@@H](O)[C@@H]1O (stereo partly shown) [Compound 4],–,–,–,gradually shrinked to disappear
CC(C)[C@]12O[C@H]1[C@@H]1O[C@]13[C@]1(O[C@H]1CC1C4=C(CC[C@@]13C)C(=O)OC4)[C@@H]2OC(=O)CCC(=O)NC(COCCC(=O)NCCCNC(=O)CCCC(=O)N[C@H]1C(O)O[C@H](CO)[C@@H](O)[C@@H]1O)(COCCC(=O)NCCCNC(=O)CCCC(=O)N[C@H]1C(O)O[C@H](CO)[C@@H](O)[C@@H]1O)COCCC(=O)NCCCNC(=O)CCCC(=O)N[C@H]1C(O)O[C@H](CO)[C@@H](O)[C@@H]1O (stereo partly shown) [Compound 8],–,–,–,gradually shrinked to disappear
CC(C)[C@]12O[C@H]1[C@@H]1O[C@]13[C@]1(O[C@H]1CC1C4=C(CC[C@@]13C)C(=O)OC4)[C@@H]2OC(=O)CCC(=O)NC(COCCC(=O)NCCCNC(=O)CCCCO[C@@H]1O[C@H](CO)[C@@H](O)[C@H](O)[C@H]1O)(COCCC(=O)NCCCNC(=O)CCCCO[C@@H]1O[C@H](CO)[C@@H](O)[C@H](O)[C@H]1O)COCCC(=O)NCCCNC(=O)CCCCO[C@@H]1O[C@H](CO)[C@@H](O)[C@H](O)[C@H]1O (stereo partly shown) [Compound 9],–,–,–,gradually shrinked to disappear
CC(=O)N[C@H]1[C@H](OCCCCC(=O)NCCCNC(=O)CCOCC(COCCC(=O)NCCCNC(=O)CCCCO[C@@H]2O[C@H](CO)[C@H](O)[C@H](O)[C@H]2NC(C)=O)(COCCC(=O)NCCCNC(=O)CCCCO[C@@H]2O[C@H](CO)[C@H](O)[C@H](O)[C@H]2NC(C)=O)NC(=O)CCC(=O)O[C@@H]2[C@@]3(C(C)C)O[C@H]3[C@@H]3O[C@]34[C@]23O[C@H]3CC2C3=C(CC[C@@]24C)C(=O)OC3)O[C@H](CO)[C@H](O)[C@@H]1O (stereo partly shown) [Compound 10],–,–,–,gradually shrinked to disappear
"COc1cc2nccc(Oc3ccc(NC(=O)NC4CC4)c(Cl)c3)c2cc1C(N)=O [Lenvatinib, reference compound]",381 mm^3,42.3%,≤ 9 times,–
